Broadly, the IC50 is the concentration that gives 50% inhibition.

Structures are written as SMILES.

Experiment [1] has as its target T1, phosphorylated Axl (pAxl Y702) in NCI-H1299 cells (Homo sapiens, UniProt P30530).
T1 construct: endogenous in cells; host or cells: NCI-H1299
T1 sequence (P30530 26-894): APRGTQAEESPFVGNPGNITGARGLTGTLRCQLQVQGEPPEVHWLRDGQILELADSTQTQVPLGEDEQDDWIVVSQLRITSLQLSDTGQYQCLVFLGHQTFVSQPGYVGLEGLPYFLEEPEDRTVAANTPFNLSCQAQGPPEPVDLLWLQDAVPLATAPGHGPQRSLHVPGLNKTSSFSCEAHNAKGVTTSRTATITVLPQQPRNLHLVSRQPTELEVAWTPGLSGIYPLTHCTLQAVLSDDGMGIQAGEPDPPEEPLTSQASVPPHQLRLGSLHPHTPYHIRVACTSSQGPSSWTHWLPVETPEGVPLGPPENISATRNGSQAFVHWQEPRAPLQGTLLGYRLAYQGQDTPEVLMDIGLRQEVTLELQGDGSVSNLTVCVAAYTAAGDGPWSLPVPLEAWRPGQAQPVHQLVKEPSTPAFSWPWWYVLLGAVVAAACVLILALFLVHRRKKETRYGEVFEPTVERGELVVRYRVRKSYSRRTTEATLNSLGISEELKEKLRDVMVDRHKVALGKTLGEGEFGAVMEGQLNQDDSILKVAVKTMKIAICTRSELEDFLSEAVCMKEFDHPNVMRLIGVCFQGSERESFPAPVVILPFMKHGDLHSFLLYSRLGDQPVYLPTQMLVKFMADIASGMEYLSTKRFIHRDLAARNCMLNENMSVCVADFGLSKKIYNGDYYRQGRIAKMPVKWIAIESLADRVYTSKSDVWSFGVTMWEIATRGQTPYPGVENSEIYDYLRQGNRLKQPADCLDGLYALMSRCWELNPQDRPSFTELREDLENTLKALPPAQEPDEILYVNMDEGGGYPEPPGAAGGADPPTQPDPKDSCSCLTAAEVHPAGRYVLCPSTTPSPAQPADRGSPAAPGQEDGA
The experiment in a line: Intracellular Axl Phosphorylation Inhibitory Activity (pAxl, NCI-H1299 cells). Particulars: 1 h compound incubation, GAS6 stimulation 10 minutes, pAxl (Y702) level. In kind it is cell-based. The procedure: A phosphorylated Axl (hereinafter pAxl) inhibitory test was performed using the human non-small-cell lung cancer-derived cell strain NCI-H1299.
On the following day, the medium was removed, 100 μl of fresh medium were added, and the cells were cultured at 37° C. in the presence of 5% CO2 for one day.
The test compound was dissolved in DMSO and diluted with medium to prepare a sample solution (DMSO concentration: 2%). Twenty-five microliters of medium or sample-added medium was added to each well (DMSO concentration: 0.4%), and the plate was incubated at 37° C. in the presence of 5% CO2 for one hour.
After stirring, the plate was incubated at 37° C. in the presence of 5% CO2 for 10 minutes.
The supernatant was discarded, and 0.1 ml of a 37% formalin solution diluted to 4% with phosphate buffer (PBS) (hereinafter “4% formalin solution”) was added to each well. The plate was allowed to stand at room temperature for 10 minutes.
Next, the 4% formalin solution was discarded, and 0.2 ml of a solution of Triton X-100 diluted to 0.1% with PBS (hereinafter “wash buffer”) was added. The wash buffer was discarded using a decanter, and excess moisture in the plate was removed on a paper towel.
Subsequently, […] NaN3 and H2O2 were added to the wash buffer at 0.1% (hereinafter “quenching buffer”), and 0.1 ml of the quenching buffer was added to each well. The plate was allowed to stand at room temperature for 15 minutes.
The quenching buffer was discarded, and 0.2 ml of wash buffer was added. The wash buffer was discarded using a decanter, and excess moisture in the plate was removed on a paper towel.
Skim milk (Nacalai Tesque) was added to the wash buffer at a final concentration of 5% (hereinafter “blocking buffer”), and 0.25 ml of the blocking buffer was added to each well. The plate was allowed to stand at room temperature for one hour.
After light stirring, the plate was incubated for 20 minutes. Luminescence was then measured by ARVO sx (PerkinElmer), and the pAxl (Y702) level was measured.
pAxl Inhibitory activity was determined by the following formula. Inhibition %=100−(A−B)×100/(T−B)
A: Measurement of the test compound
T: Luminescence value of the reaction solution with a compound not added

The target of experiment [2] is T2, AXL (fusion protein of amino acids 464-885 of the intracellular domain of human AXL with glutathione transferase) (Homo sapiens, UniProt P30530).
T2 sequence (P30530 464-885 isoform P30530-2): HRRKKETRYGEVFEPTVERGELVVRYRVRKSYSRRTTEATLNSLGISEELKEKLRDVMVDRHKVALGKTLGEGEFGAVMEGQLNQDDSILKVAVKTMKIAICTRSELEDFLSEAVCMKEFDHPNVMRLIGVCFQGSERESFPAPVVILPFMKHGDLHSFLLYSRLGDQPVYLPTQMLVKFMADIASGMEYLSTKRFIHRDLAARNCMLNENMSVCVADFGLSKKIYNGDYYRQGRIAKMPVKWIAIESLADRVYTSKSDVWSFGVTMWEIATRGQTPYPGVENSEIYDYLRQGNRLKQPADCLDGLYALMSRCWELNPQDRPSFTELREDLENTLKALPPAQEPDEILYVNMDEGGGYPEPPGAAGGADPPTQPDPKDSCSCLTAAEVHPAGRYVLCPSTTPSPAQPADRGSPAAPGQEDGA
Nature of the experiment: Cell-Free Axl Kinase Inhibitory Activity.
Method: Next, the test compound was diluted with DMSO, and 1 μl of this diluted solution was added to each well.
Five microliters of this solution were added to each well to initiate a kinase reaction. The plate was incubated at 28° C. for 1.5 hours, and 40 μl of a termination buffer (100 mM HEPES (pH 7.4), 0.015% Brij-35, 40 mM EDTA, 0.1% Coating Reagent 3) was added to each well to terminate the reaction.
The substrate peptide and the phosphorylated peptide in the reaction solution were separated and quantified by EZ Reader II (Caliper Life Sciences).
IC50 was determined from inhibition data for 12 test compound concentrations by nonlinear regression (four-parameter logistic regression) using the following formula.

As to `COc1ccc(-c2cnc(N)c(-c3ccc(NC(=O)c4cn(C[C@H]5COCCO5)cc(-c5ccc(F)cc5)c4=O)cc3)c2)cc1OC` [Example 14, N-{4-[2-Amino-5-(3,4-dimethoxyphenyl)pyridin-3-yl]phenyl}-1-[(2S)-1,4-dioxan-2-ylmethyl]-5-(4-fluorophenyl)-4-oxo-1,4-dihydropyridine-3-carboxamide], the half-maximal inhibitory concentration (IC50) in experiment [1] lay in the range of 50 to 100 nM; in experiment [2] it was 1 to 10 nM.
For the molecule `CC(=O)N1C2C=C(c3cnc(N)c(-c4ccc(NC(=O)c5cn(CCF)cc(-c6ccc(F)cc6)c5=O)cc4)c3)CC1CC2` (stereo not shown) [Example 81, N-{4-[5-(8-Acetyl-8-azabicyclo[3.2.1]oct-2-en-3-yl)-2-aminopyridin-3-yl]phenyl}-1-(2-fluoroethyl)-5-(4-fluorophenyl)-4-oxo-1,4-dihydropyridine-3-carboxamide], the IC50 is 100 to 500 nM in experiment [1] and 23 nM in experiment [2].
In the case of `COc1ccc(-c2cnc(N)c(-c3ccc(NC(=O)c4cn(CC(F)(F)F)cc(-c5cccc(F)c5)c4=O)cc3)c2)cc1OC` [Example 22, N-{4-[2-Amino-5-(3,4-dimethoxyphenyl)pyridin-3-yl]phenyl}-5-(3-fluorophenyl)-4-oxo-1-(2,2,2-trifluoroethyl)-1,4-dihydropyridine-3-carboxamide], the IC50 in experiment [1] was in the range of 50 to 100 nM; in experiment [2], 1 to 10 nM.
For the molecule `CN1CC=C(c2cnc(N)c(-c3ccc(NC(=O)c4cn(CC(F)(F)F)cc(-c5ccc(F)cc5)c4=O)cc3)c2)CC1` [Example 79, N-[4-(6-Amino-1′-methyl-1′,2′,3′,6′-tetrahydro-3,4′-bipyridin-5-yl)phenyl]-5-(4-fluorophenyl)-4-oxo-1-(2,2,2-trifluoroethyl)-1,4-dihydropyridine-3-carboxamide], the figures for the IC50 in experiment [1] and in experiment [2] were 50 to 100 nM and 1 to 10 nM, respectively.
With `COc1ccc(-c2cnc(N)c(-c3ccc(NC(=O)c4cn(CC(F)(F)F)cc(-c5ccc(F)c(Br)c5)c4=O)cc3)c2)cc1OC` [Example 89, N-{4-[2-Amino-5-(3,4-dimethoxyphenyl)pyridin-3-yl]phenyl}-5-(4-fluoro-3-bromophenyl)-4-oxo-1-(2,2,2-trifluoroethyl)-1,4-dihydropyridine-3-carboxamide], the IC50 lay in the range of 50 to 100 nM in experiment [1] and 1 to 10 nM in experiment [2].
Taken in the same sequence, the figures for `COc1ccc(-c2cnc(N)c(-c3ccc(NC(=O)c4cn(CCOC5CCCCO5)cc(-c5ccc(F)cc5)c4=O)cc3)c2)cc1OC` (racemic) [Example 6, N-{4-[2-Amino-5-(3,4-dimethoxyphenyl)pyridin-3-yl]phenyl}-5-(4-fluorophenyl)-4-oxo-1-[2-(tetrahydro-2H-pyran-2-yloxy)ethyl]-1,4-dihydropyridine-3-carboxamide] were 100 to 500 nM and 1 to 10 nM.
On to `Cc1ccc(-c2cnc(N)c(-c3ccc(NC(=O)c4cn(CC(F)(F)F)cc(-c5ccc(F)cc5)c4=O)cc3)c2)cc1` [Example 35, N-{4-[2-Amino-5-(4-methylphenyl)pyridin-3-yl]phenyl}-5-(4-fluorophenyl)-4-oxo-1-(2,2,2-trifluoroethyl)-1,4-dihydropyridine-3-carboxamide], for which the IC50 is 100 to 500 nM in experiment [1] and 10 to 20 nM in experiment [2].
As for `Nc1ncc(-c2ccccc2)cc1-c1ccc(NC(=O)c2cn(CC(F)(F)F)cc(-c3ccc(F)cc3)c2=O)cc1` [Example 31, N-[4-(2-Amino-5-phenylpyridin-3-yl)phenyl]-5-(4-fluorophenyl)-4-oxo-1-(2,2,2-trifluoroethyl)-1,4-dihydropyridine-3-carboxamide], the results for the IC50 in experiment [1] and in experiment [2] were 100 to 500 nM and 1 to 10 nM, respectively.
With `COC1CN(C(=O)c2cn(Cc3ccc(F)cc3)cc(C(=O)Nc3ccc(-c4cc(-c5cnn(C[C@H]6COCCO6)c5)cnc4N)cc3)c2=O)C1` [Example 72, N-[4-(2-Amino-5-{1-[(2S)-1,4-dioxan-2-ylmethyl]-1H-pyrazol-4-yl}pyridin-3-yl)phenyl]-1-(4-fluorobenzyl)-5-[(3-methoxyazetidin-1-yl)carbonyl]-4-oxo-1,4-dihydropyridine-3-carboxamide], the IC50 is 50 to 100 nM in experiment [1] and 1 to 10 nM in experiment [2].
Regarding `COc1ccc(-c2cnc(N)c(-c3ccc(NC(=O)c4cn(CCO)cc(-c5ccc(F)cc5)c4=O)cc3)c2)cc1OC` [Example 7, N-{4-[2-Amino-5-(3,4-dimethoxyphenyl)pyridin-3-yl]phenyl}-5-(4-fluorophenyl)-1-(2-hydroxyethyl)-4-oxo-1,4-dihydropyridine-3-carboxamide], the IC50 fell in the range of 50 to 100 nM in experiment [1] and 1 to 10 nM in experiment [2].
Turning to `COc1ccc(-c2cnc(N)c(-c3ccc(NC(=O)c4cn(CC(F)(F)F)cc(-c5ccc(F)cc5)c4=O)cc3C)c2)cc1OC` [Example 30, N-{4-[2-Amino-5-(3,4-dimethoxyphenyl)pyridin-3-yl]-3-methylphenyl}-5-(4-fluorophenyl)-4-oxo-1-(2,2,2-trifluoroethyl)-1,4-dihydropyridine-3-carboxamide], the IC50 in experiment [1] lay in the range of 50 to 100 nM; in experiment [2] it was 1 to 10 nM.
Taken in the same sequence, the figures for `COc1ccc(-c2cnc(N)c(-c3ccc(NC(=O)c4c[nH]cc(-c5ccc(F)cc5)c4=O)cc3)c2)cc1OC` [Example 1, N-{4-[2-Amino-5-(3,4-dimethoxyphenyl)pyridin-3-yl]phenyl}-5-(4-fluorophenyl)-4-oxo-1,4-dihydropyridine-3-carboxamide] were 50 to 100 nM and 1 to 10 nM.
Take `Nc1ncc(-c2cccc(Cl)c2)cc1-c1ccc(NC(=O)c2cn(CC(F)(F)F)cc(-c3ccc(F)cc3)c2=O)cc1` [Example 36, N-{4-[2-Amino-5-(3-chlorophenyl)pyridin-3-yl]phenyl}-5-(4-fluorophenyl)-4-oxo-1-(2,2,2-trifluoroethyl)-1,4-dihydropyridine-3-carboxamide]: the IC50 in experiment [1] lay in the range of 100 to 500 nM; in experiment [2], 10 to 20 nM.
On to `COc1cccc(-c2cnc(N)c(-c3ccc(NC(=O)c4cn(CC(F)(F)F)cc(-c5ccc(F)cc5)c4=O)cc3)c2)c1` [Example 33, N-{4-[2-Amino-5-(3-methoxyphenyl)pyridin-3-yl]phenyl}-5-(4-fluorophenyl)-4-oxo-1-(2,2,2-trifluoroethyl)-1,4-dihydropyridine-3-carboxamide], for which the figures for the IC50 in experiment [1] and in experiment [2] were 50 to 100 nM and 1 to 10 nM, respectively.

Values taken from patent publication US8933103B2, “Pyridone derivatives” (Daiichi Sankyo Company, Limited, priority 2012, dated 2015).
